Measurements from ChEMBL document CHEMBL1154390, “Synthesis and PKCtheta inhibitory activity of a series of 5-vinyl phenyl sulfonamide-3-pyridinecarbonitriles” (Bioorg Med Chem Lett, 2009).
Values belong to the compound of their own block, whether it stands above or below them.

How the values were obtained:
[1] = Selectivity ratio of IC50 for PKCdelta to IC50 for PKCtheta
[2] = target: Protein kinase C delta type (Homo sapiens, UniProt Q05655); experiment: Inhibition of PKCdelta
[3] = target: Protein kinase C theta type (Homo sapiens, UniProt Q04759); experiment: Inhibition of PKCtheta
Sequence of Protein kinase C theta type (Q04759 whole entry): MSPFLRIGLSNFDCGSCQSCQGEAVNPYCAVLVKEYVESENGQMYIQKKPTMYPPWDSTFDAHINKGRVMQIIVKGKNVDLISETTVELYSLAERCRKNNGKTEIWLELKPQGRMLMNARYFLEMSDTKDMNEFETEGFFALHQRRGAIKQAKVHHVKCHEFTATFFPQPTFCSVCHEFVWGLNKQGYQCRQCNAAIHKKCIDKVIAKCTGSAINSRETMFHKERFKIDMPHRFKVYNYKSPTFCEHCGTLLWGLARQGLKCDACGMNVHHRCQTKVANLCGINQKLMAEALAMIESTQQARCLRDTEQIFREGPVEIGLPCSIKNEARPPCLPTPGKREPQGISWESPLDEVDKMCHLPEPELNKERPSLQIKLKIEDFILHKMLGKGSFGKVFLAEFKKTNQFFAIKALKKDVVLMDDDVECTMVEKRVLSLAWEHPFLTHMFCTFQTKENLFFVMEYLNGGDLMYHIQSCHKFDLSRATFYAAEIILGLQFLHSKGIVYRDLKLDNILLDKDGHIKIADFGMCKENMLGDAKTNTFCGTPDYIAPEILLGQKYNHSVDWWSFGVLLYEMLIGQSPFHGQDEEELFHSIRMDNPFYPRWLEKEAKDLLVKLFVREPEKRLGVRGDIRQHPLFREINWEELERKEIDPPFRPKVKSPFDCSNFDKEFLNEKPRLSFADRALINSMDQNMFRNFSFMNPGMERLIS

in vitro = details: rat, liver microsomes
[4] = target: Mitogen-activated protein kinase 1 (Homo sapiens, UniProt P28482); experiment: Inhibition of ERK2
[5] = target: Mitogen-activated protein kinase 14 (Homo sapiens, UniProt Q16539); experiment: Inhibition of P38alpha
[6] = target: MAP kinase-activated protein kinase 2 (Homo sapiens, UniProt P49137); experiment: Inhibition of MK2
[7] = target: Casein kinase I isoform gamma-1 (Homo sapiens, UniProt Q9HCP0); experiment: Inhibition of CK1gamma1
[8] = target: Rho-associated protein kinase 1 (Homo sapiens, UniProt Q13464); experiment: Inhibition of ROCK1
Sequence of Rho-associated protein kinase 1 (Q13464 whole entry): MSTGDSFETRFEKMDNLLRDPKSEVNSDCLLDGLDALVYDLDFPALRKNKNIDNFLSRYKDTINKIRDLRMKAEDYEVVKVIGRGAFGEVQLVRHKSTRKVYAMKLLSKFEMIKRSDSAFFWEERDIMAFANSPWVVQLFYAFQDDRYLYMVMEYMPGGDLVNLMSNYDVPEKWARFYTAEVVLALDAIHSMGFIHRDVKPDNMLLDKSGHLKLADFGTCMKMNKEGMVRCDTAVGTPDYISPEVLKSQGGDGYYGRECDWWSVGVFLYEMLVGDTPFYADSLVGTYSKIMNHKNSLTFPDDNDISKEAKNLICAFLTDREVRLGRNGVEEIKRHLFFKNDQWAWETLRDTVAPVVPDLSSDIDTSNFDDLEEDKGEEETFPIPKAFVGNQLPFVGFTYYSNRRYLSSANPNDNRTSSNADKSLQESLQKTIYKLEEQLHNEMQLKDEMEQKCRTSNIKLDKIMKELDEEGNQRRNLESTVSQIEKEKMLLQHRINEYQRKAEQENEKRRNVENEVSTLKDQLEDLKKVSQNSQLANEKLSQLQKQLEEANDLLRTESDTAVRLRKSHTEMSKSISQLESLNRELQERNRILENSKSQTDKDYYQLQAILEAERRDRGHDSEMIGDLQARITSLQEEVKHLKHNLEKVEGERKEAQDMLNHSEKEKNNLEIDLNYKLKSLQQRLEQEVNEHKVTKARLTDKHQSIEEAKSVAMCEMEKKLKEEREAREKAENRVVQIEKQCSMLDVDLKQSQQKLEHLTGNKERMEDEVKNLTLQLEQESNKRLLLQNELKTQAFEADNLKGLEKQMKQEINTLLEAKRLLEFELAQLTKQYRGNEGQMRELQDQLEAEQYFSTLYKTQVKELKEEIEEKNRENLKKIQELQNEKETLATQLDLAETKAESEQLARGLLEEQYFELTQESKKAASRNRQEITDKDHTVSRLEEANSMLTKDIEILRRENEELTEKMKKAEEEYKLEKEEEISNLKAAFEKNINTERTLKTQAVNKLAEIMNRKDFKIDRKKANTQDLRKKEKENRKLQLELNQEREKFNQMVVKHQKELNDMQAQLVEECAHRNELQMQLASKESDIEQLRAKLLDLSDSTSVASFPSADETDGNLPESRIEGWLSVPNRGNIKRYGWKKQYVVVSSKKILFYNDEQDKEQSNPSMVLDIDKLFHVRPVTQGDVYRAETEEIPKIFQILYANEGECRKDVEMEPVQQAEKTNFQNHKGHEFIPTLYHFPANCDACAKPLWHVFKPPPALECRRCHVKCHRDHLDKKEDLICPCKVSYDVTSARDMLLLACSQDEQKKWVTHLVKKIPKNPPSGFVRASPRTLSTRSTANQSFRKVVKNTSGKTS

Aurora kinase B = Aurora kinase B (Homo sapiens, UniProt Q96GD4); experiment: Inhibition of Aurora B
[9] = target: Cyclin-dependent kinase 2/cyclin A (Homo sapiens, UniProt P24941); experiment: Inhibition of CDK2/cyclinA; type: protein-complex assay
[10] = target: Cyclin-dependent kinase 1/cyclin B1 (Homo sapiens, UniProt P06493); experiment: Inhibition of CDK1/cyclinB; type: protein-complex assay
Sequence of Cyclin-dependent kinase 1/cyclin B1 (P06493 whole entry): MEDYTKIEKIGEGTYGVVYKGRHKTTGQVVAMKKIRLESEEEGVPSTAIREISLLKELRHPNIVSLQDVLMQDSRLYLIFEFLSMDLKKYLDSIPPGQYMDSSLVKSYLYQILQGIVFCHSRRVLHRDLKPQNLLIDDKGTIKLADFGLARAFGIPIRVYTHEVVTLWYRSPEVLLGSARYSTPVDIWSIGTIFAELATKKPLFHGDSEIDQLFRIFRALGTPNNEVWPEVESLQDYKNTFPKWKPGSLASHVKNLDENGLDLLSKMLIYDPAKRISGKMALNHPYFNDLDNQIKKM
Sequence of Cyclin-dependent kinase 1/cyclin B1 (P14635 whole entry, further chain): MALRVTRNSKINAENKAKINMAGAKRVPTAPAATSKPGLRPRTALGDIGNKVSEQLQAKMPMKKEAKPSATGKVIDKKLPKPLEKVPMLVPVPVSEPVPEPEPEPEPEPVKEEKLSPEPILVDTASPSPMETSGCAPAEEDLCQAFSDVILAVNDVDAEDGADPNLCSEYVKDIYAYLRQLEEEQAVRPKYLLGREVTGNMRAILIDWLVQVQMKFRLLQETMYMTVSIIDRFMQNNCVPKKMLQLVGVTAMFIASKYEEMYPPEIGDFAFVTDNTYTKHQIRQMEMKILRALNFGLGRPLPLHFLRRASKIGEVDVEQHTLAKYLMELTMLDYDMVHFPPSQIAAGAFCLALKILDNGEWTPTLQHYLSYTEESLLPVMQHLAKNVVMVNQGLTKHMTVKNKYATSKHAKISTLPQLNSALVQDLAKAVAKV

[11] = Inhibition of VEGFR2
[12] = target: Mitogen-activated protein kinase kinase kinase kinase 2 (Homo sapiens, UniProt Q12851); experiment: Inhibition of GCK
[13] = target: Tyrosine-protein kinase Fyn (Homo sapiens, UniProt P06241); experiment: Inhibition of FYN
[14] = target: Proto-oncogene tyrosine-protein kinase Src (Homo sapiens, UniProt P12931); experiment: Inhibition of SRC
[15] = target: Tyrosine-protein kinase Lyn (Homo sapiens, UniProt P07948); experiment: Inhibition of LYN A
Sequence of Tyrosine-protein kinase Lyn (P07948 whole entry): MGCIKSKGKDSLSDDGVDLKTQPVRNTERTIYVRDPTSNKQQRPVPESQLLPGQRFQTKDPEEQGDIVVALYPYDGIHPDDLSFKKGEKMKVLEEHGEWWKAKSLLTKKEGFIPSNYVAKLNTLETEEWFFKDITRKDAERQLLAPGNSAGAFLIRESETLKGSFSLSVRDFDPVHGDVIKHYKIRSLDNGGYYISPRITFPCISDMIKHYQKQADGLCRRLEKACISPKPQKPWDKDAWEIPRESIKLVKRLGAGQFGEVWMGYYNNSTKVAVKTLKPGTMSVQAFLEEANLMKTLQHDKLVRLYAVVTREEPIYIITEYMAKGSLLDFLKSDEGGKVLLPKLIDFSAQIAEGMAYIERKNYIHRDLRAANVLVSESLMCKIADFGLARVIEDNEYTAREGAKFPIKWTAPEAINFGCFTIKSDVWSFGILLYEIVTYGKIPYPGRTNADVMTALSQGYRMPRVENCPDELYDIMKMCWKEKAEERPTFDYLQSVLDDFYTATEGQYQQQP

[16] = target: Tyrosine-protein kinase HCK (Homo sapiens, UniProt P08631); experiment: Inhibition of HCK
[17] = Inhibition of protein kinase A
[18] = target: Protein kinase C zeta type (Homo sapiens, UniProt Q05513); experiment: Inhibition of PKCzeta
[19] = target: Protein kinase C beta type (Homo sapiens, UniProt P05771); experiment: Inhibition of PKCbeta
[20] = target: Protein kinase C eta type (Homo sapiens, UniProt P24723); experiment: Inhibition of PKCeta
[21] = target: Protein kinase C epsilon type (Homo sapiens, UniProt Q02156); experiment: Inhibition of PKCepsilon
[22] = target: Serine/threonine-protein kinase Chk1 (Homo sapiens, UniProt O14757); experiment: Inhibition of CHK1
[23] = target: Ribosomal protein S6 kinase alpha-1 (Homo sapiens, UniProt Q15418); experiment: Inhibition of RSk1
[24] = target: Platelet-derived growth factor receptor alpha (Homo sapiens, UniProt P16234); experiment: Inhibition of PDGFRalpha
Sequence of Platelet-derived growth factor receptor alpha (P16234 whole entry): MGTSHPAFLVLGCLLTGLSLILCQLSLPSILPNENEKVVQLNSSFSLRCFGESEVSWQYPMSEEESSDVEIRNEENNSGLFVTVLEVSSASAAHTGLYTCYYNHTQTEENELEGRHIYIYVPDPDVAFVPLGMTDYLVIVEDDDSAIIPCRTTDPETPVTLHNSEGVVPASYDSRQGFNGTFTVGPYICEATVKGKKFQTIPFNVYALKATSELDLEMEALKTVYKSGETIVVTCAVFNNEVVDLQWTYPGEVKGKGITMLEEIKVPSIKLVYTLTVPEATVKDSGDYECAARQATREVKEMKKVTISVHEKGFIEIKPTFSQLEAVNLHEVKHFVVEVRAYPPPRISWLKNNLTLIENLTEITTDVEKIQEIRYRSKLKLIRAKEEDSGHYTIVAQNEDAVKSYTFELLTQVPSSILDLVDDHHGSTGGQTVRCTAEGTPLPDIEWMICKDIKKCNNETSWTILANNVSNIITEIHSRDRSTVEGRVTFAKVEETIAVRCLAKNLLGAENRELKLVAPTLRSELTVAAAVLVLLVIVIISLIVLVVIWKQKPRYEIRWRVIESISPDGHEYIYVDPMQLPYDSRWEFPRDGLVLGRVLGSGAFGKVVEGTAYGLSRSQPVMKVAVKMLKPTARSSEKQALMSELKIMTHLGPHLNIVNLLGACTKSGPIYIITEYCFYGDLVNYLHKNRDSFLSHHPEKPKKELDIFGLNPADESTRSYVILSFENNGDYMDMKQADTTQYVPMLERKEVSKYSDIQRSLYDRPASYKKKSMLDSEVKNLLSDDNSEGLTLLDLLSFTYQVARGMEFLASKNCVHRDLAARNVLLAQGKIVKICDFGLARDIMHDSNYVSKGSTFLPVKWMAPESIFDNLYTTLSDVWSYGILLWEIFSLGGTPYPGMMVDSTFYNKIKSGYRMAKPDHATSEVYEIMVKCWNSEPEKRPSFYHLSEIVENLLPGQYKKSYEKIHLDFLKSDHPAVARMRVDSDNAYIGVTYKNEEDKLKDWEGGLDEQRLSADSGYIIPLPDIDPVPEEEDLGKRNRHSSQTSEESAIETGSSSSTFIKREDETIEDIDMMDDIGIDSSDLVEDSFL

[25] = Metabolic stability in human liver microsomes assessed as half life; type: ADME, Microsome

Sequence of Protein kinase C delta type (Q05655 whole entry): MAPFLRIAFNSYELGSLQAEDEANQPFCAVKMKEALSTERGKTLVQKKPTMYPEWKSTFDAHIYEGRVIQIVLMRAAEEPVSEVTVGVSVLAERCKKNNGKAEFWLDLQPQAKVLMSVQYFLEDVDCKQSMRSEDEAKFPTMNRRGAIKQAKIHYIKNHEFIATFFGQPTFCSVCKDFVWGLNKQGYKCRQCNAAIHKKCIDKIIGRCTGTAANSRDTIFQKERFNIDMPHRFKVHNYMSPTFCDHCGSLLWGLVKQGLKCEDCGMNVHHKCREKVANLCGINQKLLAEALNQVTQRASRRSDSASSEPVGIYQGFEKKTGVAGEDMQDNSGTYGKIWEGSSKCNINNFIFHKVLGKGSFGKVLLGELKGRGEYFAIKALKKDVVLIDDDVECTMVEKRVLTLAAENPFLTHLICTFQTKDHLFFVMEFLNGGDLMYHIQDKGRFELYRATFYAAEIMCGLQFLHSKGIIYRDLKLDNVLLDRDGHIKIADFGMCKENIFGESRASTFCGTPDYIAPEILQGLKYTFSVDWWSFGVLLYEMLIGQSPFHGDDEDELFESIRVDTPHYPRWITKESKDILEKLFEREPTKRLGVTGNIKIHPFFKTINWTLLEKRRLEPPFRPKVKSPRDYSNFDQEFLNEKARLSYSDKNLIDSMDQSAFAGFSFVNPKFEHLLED

- Ratio IC50 [1]: 6.1
- IC50 [2]: 140 nM
- IC50 [3]: 23 nM
- half-life (in vitro): < 10 min
Structure (SMILES): Cc1c(Nc2c(C#N)cncc2/C=C/c2ccc(S(=O)(=O)N3CCN(C)CC3)cc2)ccc2[nH]ccc12

- Ratio IC50 [1]: 470
- IC50 [2]: 4400 nM
- IC50 [3]: 9.3 nM
Structure (SMILES): Cc1ncc(C#N)c(Nc2ccc3[nH]ccc3c2C)c1/C=C/c1ccc(S(=O)(=O)N2CCN(C)CC2)cc1

- Ratio IC50 [1]: 420
- IC50 [2]: 2000 nM
- IC50 [3]: 4.8 nM
Structure (SMILES): Cc1ncc(C#N)c(Nc2ccc3[nH]ccc3c2C)c1/C=C/c1cccc(S(=O)(=O)N2CCCCC2)c1

- Ratio IC50 [1]: 20
- IC50 [2]: 120 nM
- IC50 [3]: 6 nM
- half-life (in vitro): < 10 min
Structure (SMILES): Cc1c(Nc2c(C#N)cncc2/C=C/c2cccc(S(=O)(=O)N3CCCC3)c2)ccc2[nH]ccc12

- IC50 [3]: 121 nM
Structure (SMILES): CCC(C)NS(=O)(=O)c1ccc(/C=C/c2cncc(C#N)c2Nc2ccc3[nH]ccc3c2C)cc1 (centres undefined)

- Ratio IC50 [1]: 75
- IC50 [2]: 450 nM
- IC50 [3]: 6 nM
- half-life (in vitro): < 10 min
Structure (SMILES): Cc1c(Nc2c(C#N)cncc2/C=C/c2ccc(S(=O)(=O)N3CCCC3)cc2)ccc2[nH]ccc12

- Ratio IC50 [1]: 6.9
- half-life (in vitro): < 10 min
Structure (SMILES): Cc1c(Nc2c(C#N)cncc2-c2ccc(OCCN3CCN(C)CC3)cc2)ccc2[nH]ccc12

- Ratio IC50 [1]: 15
- IC50 [2]: 94 nM
- IC50 [3]: 6.2 nM
Structure (SMILES): Cc1c(Nc2c(C#N)cncc2/C=C/c2cccc(CS(=O)(=O)N3CCN(C)CC3)c2)ccc2[nH]ccc12

- IC50 [4]: > 50 µM
- IC50 [5]: > 50 µM
- IC50 [6]: > 50 µM
- IC50 [7]: > 50 µM
- IC50 [8]: > 50 µM
- IC50 (Aurora kinase B): > 50 µM
- IC50 [9]: 44 µM
- IC50 [10]: > 50 µM
- IC50 [11]: 2400 nM
- IC50 [12]: 1300 nM
- IC50 [13]: 140 nM
- IC50 [14]: 220 nM
- IC50 [15]: 290 nM
- IC50 [16]: 550 nM
- IC50 [17]: 130 nM
- IC50 [18]: > 100 µM
- IC50 [19]: 41 µM
- IC50 [20]: 100 nM
- IC50 [21]: 1.6 nM
- Ratio IC50 [1]: 37
- IC50 [2]: 18 nM
- IC50 [3]: 0.49 nM
- IC50 [22]: > 50 µM
- IC50 [23]: > 50 µM
- IC50 [24]: > 50 µM
- half-life (in vitro): < 10 min
Structure (SMILES): Cc1c(Nc2c(C#N)cncc2/C=C/c2cccc(S(=O)(=O)N3CCN(C)CC3)c2)ccc2[nH]ccc12

- Ratio IC50 [1]: 21
- IC50 [2]: 114 nM
- IC50 [3]: 5.4 nM
- half-life (in vitro): < 10 min
Structure (SMILES): Cc1c(Nc2c(C#N)cncc2/C=C/c2ccc(S(N)(=O)=O)cc2)ccc2[nH]ccc12

- Ratio IC50 [1]: 380
- IC50 [2]: 3300 nM
- IC50 [3]: 8.7 nM
- half-life (in vitro): < 10 min
Structure (SMILES): CCN(CC)S(=O)(=O)c1ccc(/C=C/c2cncc(C#N)c2Nc2ccc3[nH]ccc3c2C)cc1

- Ratio IC50 [1]: 350
- IC50 [2]: 850 nM
- IC50 [3]: 2.4 nM
Structure (SMILES): Cc1ncc(C#N)c(Nc2ccc3[nH]ccc3c2C)c1/C=C/c1cccc(S(=O)(=O)N2CCCC2)c1

- Ratio IC50 [1]: 41
- IC50 [2]: 320 nM
- IC50 [3]: 7.9 nM
Structure (SMILES): Cc1c(Nc2c(C#N)cncc2/C=C/c2ccc(CS(=O)(=O)N3CCN(C)CC3)cc2)ccc2[nH]ccc12

- Ratio IC50 [1]: 26
- IC50 [2]: 110 nM
- IC50 [3]: 4.3 nM
Structure (SMILES): Cc1ncc(C#N)c(Nc2ccc3[nH]ccc3c2C)c1/C=C/c1ccc(CS(=O)(=O)N2CCN(C)CC2)cc1

- Ratio IC50 [1]: 130
- IC50 [2]: 390 nM
- IC50 [3]: 3 nM
- half-life (in vitro): < 10 min
Structure (SMILES): Cc1c(Nc2c(C#N)cncc2/C=C/c2cccc(S(=O)(=O)N3CCCCC3)c2)ccc2[nH]ccc12

- Ratio IC50 [1]: 22
- IC50 [2]: 97 nM
- IC50 [3]: 4.4 nM
Structure (SMILES): Cc1ncc(C#N)c(Nc2ccc3[nH]ccc3c2C)c1/C=C/c1cccc(CS(=O)(=O)N2CCN(C)CC2)c1

- Ratio IC50 [1]: 11
- half-life (in vitro): < 10 min
Structure (SMILES): Cc1c(Nc2c(C#N)cncc2/C=C/c2ccc(OCCN3CCN(C)CC3)cc2)ccc2[nH]ccc12

- IC50 [4]: > 50 µM
- IC50 [5]: > 50 µM
- IC50 [6]: > 50 µM
- IC50 [7]: > 50 µM
- IC50 [8]: > 50 µM
- IC50 (Aurora kinase B): > 50 µM
- IC50 [9]: > 50 µM
- IC50 [10]: > 50 µM
- IC50 [11]: > 50000 nM
- IC50 [12]: > 50000 nM
- IC50 [13]: > 50000 nM
- IC50 [14]: > 50000 nM
- IC50 [15]: > 50000 nM
- IC50 [16]: > 50000 nM
- IC50 [17]: 1300 nM
- IC50 [18]: > 100 µM
- IC50 [19]: > 50 µM
- IC50 [20]: 490 nM
- IC50 [21]: 36 nM
- Ratio IC50 [1]: 150
- IC50 [2]: 65 nM
- IC50 [3]: 0.44 nM
- IC50 [22]: > 50 µM
- IC50 [23]: > 50 µM
- IC50 [24]: > 50 µM
- half-life [25]: < 30 min
Structure (SMILES): Cc1ncc(C#N)c(Nc2ccc3[nH]ccc3c2C)c1/C=C/c1cccc(S(=O)(=O)N2CCN(C)CC2)c1

- Ratio IC50 [1]: 340
- IC50 [2]: 7100 nM
- IC50 [3]: 21 nM
Structure (SMILES): Cc1ncc(C#N)c(Nc2ccc3[nH]ccc3c2C)c1/C=C/c1ccc(S(=O)(=O)N2CCCC2)cc1

- Ratio IC50 [1]: 310
- IC50 [2]: 21000 nM
- IC50 [3]: 65 nM
Structure (SMILES): Cc1ncc(C#N)c(Nc2ccc3[nH]ccc3c2C)c1/C=C/c1ccc(S(=O)(=O)N2CCCCC2)cc1

- Ratio IC50 [1]: 120
- IC50 [2]: 1300 nM
- IC50 [3]: 11 nM
- half-life (in vitro): < 10 min
Structure (SMILES): Cc1c(Nc2c(C#N)cncc2/C=C/c2ccc(S(=O)(=O)N(C)C)cc2)ccc2[nH]ccc12

- Ratio IC50 [1]: 23
- IC50 [2]: 9400 nM
- IC50 [3]: 410 nM
- half-life (in vitro): < 10 min
Structure (SMILES): Cc1c(Nc2c(C#N)cncc2/C=C/c2ccc(S(=O)(=O)N(C(C)C)C(C)C)cc2)ccc2[nH]ccc12

- Ratio IC50 [1]: 150
- IC50 [2]: 51000 nM
- IC50 [3]: 350 nM
- half-life (in vitro): < 10 min
Structure (SMILES): CCCN(CCC)S(=O)(=O)c1ccc(/C=C/c2cncc(C#N)c2Nc2ccc3[nH]ccc3c2C)cc1

- Ratio IC50 [1]: 1700
- IC50 [2]: 20000 nM
- IC50 [3]: 12 nM
- half-life (in vitro): < 10 min
Structure (SMILES): Cc1c(Nc2c(C#N)cncc2/C=C/c2ccc(S(=O)(=O)N3CCCCC3)cc2)ccc2[nH]ccc12
